Values quoted from earlier work in patent publication EP1030653B1, “DINITROANILINE LIPOSOMAL FORMULATIONS AND PROCESSES FOR THEIR PREPARATION” (INSTITUTO NACIONAL DE ENGENHARIA E TECNOLOGIA …, priority 1998, dated 2000).

Tested on: Leishmania sp

For `CC(=O)N(O)CCCCCNC(=O)CCC(=O)N(O)CCCCCNC(=O)CCC(=O)N(O)CCCCCN` [desferrioxiamine], the efficiency (literature (32)) is given as 44%.
In the case of `N=C(N)c1ccc(OCCCCCOc2ccc(C(=N)N)cc2)cc1` [pentamidine], the “efficacy (in words)” value (literature) is listed as “less efficacy than antimonial derivatives”.
In the case of `CN(Cc1cnc2nc(N)nc(N)c2n1)c1ccc(C(=O)N[C@@H](CCC(=O)O)C(=O)O)cc1` [methotrexate], the “reduction on the infection level” value (literature (10, 11)) is listed as 85%.
For `CCC1=C(C[C@H]2NCCc3cc(OC)c(OC)cc32)C[C@H]2c3cc(OC)c(OC)cc3CCN2C1` [dehydroemetine], the cure is given as 67%.
For `CCCN(CCC)c1c([N+](=O)[O-])cc(C(F)(F)F)cc1[N+](=O)[O-]` [trifluralin], the “activity against the visceral forms” value (topical route, literature (12)) is given as “no activity”.
